Test results from patent publication US12545639B2, “3-substituted phenylamidine compounds, preparation and use thereof” (PI INDUSTRIES LTD., priority 2019, dated 2026).

Key:
Rhizoctonia solani = Rhizoctonia solani (rice sheath blight/potato black scurf) in vitro test, radial growth on potato dextrose agar; type: cell-based; conditions: 168 h, 300 ppm in potato dextrose agar, 25° C., 60% relative humidity, seven days, read-out: control compared to the untreated check (radial growth)
Phakopsora pachyrhizi = Phakopsora pachyrhizi test in soybean, preventive, in vivo on plants; conditions: in Glycine max, read-out: Efficacy (% control), disease severity compared to the untreated check
Alternaria solani = Alternaria solani (early blight of tomato/potato) in vitro test, radial growth on potato dextrose agar; type: cell-based; conditions: 168 h, 300 ppm in potato dextrose agar, 25° C., 60% relative humidity, seven days, read-out: control compared to the untreated check (radial growth)
Pyricularia oryzae = test: microbe, parasite or virus in culture; type: cell-based; conditions: 168 h, read-out: control compared to the untreated check (radial growth)
[1] = system: Septoria lycopersici/Corynespora cassicola (CORYCA); test: Septoria lycopersici/Corynespora cassicola (CORYCA) (leaf spot of tomato) in vitro test, radial growth on potato dextrose agar; type: cell-based; conditions: 168 h, 300 ppm in potato dextrose agar, 25° C., 70% relative humidity, seven days, read-out: control compared to the untreated check (radial growth)
Botrytis cinerea = Botrytis cinerea (gray mold) in vitro test, radial growth on potato dextrose agar; type: cell-based; conditions: 168 h, 300 ppm in potato dextrose agar, 22° C., 90% relative humidity, seven days, read-out: control compared to the untreated check (radial growth)

CCN(C)C=Nc1cc(F)cc(Nc2cccc(OC)c2)c1C [Compound 30, N-ethyl-N′-(5-fluoro-3-((3-methoxyphenyl)amino)-2-methylphenyl)-N-methylformimidamide]
≥ 70%: inhibition of growth at 300 ppm (Rhizoctonia solani) | pest or weed control at 500 ppm (Phakopsora pachyrhizi) | inhibition of growth at 300 ppm (Alternaria solani) | inhibition of growth at 300 ppm (Pyricularia oryzae) | inhibition of growth at 300 ppm [1]

CCN(C)C=Nc1cc(OC)cc(Nc2ccccc2OC(F)(F)F)c1C [Compound 300, N-ethyl-N′-(5-methoxy-2-methyl-3-((2-(trifluoromethoxy)phenyl)amino)phenyl)-N-methylformimidamide]
≥ 70%: inhibition of growth at 300 ppm (Rhizoctonia solani) | pest or weed control at 500 ppm (Phakopsora pachyrhizi) | inhibition of growth at 300 ppm (Alternaria solani) | inhibition of growth at 300 ppm (Pyricularia oryzae) | inhibition of growth at 300 ppm [1]

CCN(C)C=Nc1cc(F)cc(Cc2ccc(F)cc2Br)c1C [Compound 230, N′-(3-(2-bromo-4-fluorobenzyl)-5-fluoro-2-methylphenyl)-N-ethyl-N-methylformimidamide]
≥ 70%: inhibition of growth at 300 ppm (Rhizoctonia solani) | inhibition of growth at 300 ppm (Botrytis cinerea) | pest or weed control at 500 ppm (Phakopsora pachyrhizi) | inhibition of growth at 300 ppm (Alternaria solani) | inhibition of growth at 300 ppm (Pyricularia oryzae)

CCN(C)C=Nc1cc(F)cc(Nc2c(C)cccc2F)c1C [Compound 121, N-ethyl-N′-(5-fluoro-3-((2-fluoro-6-methylphenyl)amino)-2-methylphenyl)-N-methylformimidamide]
≥ 70%: pest or weed control at 500 ppm (Phakopsora pachyrhizi) | inhibition of growth at 300 ppm (Alternaria solani) | inhibition of growth at 300 ppm (Pyricularia oryzae) | inhibition of growth at 300 ppm [1]

CCN(C)C=Nc1cc(F)cc(N(C)c2ccc(F)cc2F)c1C [Compound 80, N′-(3-((2,4-difluorophenyl)(methyl)amino)-5-fluoro-2-methylphenyl)-N-ethyl-N-methylformimidamide]
≥ 70%: inhibition of growth at 300 ppm (Rhizoctonia solani) | inhibition of growth at 300 ppm (Botrytis cinerea) | pest or weed control at 500 ppm (Phakopsora pachyrhizi) | inhibition of growth at 300 ppm (Alternaria solani) | inhibition of growth at 300 ppm (Pyricularia oryzae)

CCN(C)C=Nc1cc(OC)cc(Nc2cccc(C(F)(F)F)n2)c1C [Compound 272, N-ethyl-N′-(5-methoxy-2-methyl-3-((6-(trifluoromethyl)pyridin-2-yl)amino)phenyl)-N-methylformimidamide]
≥ 70%: inhibition of growth at 300 ppm (Alternaria solani) | inhibition of growth at 300 ppm (Pyricularia oryzae) | inhibition of growth at 300 ppm [1]

CCN(C)C=Nc1cc(Cl)cc(Nc2cccc(F)c2)c1C [Compound 166, N′-(5-chloro-3-((3-fluorophenyl)amino)-2-methylphenyl)-N-ethyl-N-methylformimidamide]
≥ 70%: inhibition of growth at 300 ppm (Botrytis cinerea) | inhibition of growth at 300 ppm (Alternaria solani) | inhibition of growth at 300 ppm (Pyricularia oryzae) | inhibition of growth at 300 ppm [1]

CCN(C)C=Nc1cc(Cl)cc(Nc2ccccc2C)c1C [Compound 185, N′-(5-chloro-2-methyl-3-(o-tolylamino)phenyl)-N-ethyl-N-methylformimidamide]
≥ 70%: inhibition of growth at 300 ppm (Rhizoctonia solani) | inhibition of growth at 300 ppm (Botrytis cinerea) | pest or weed control at 500 ppm (Phakopsora pachyrhizi) | inhibition of growth at 300 ppm (Alternaria solani) | inhibition of growth at 300 ppm (Pyricularia oryzae)

CCN(C)C=Nc1cc(F)cc(Cc2ccc(C#N)cc2)c1C [Compound 202, N′-(3-(4-cyanobenzyl)-5-fluoro-2-methylphenyl)-N-ethyl-N-methylformimidamide]
≥ 70%: inhibition of growth at 300 ppm (Rhizoctonia solani) | inhibition of growth at 300 ppm (Botrytis cinerea) | pest or weed control at 500 ppm (Phakopsora pachyrhizi) | inhibition of growth at 300 ppm (Alternaria solani) | inhibition of growth at 300 ppm (Pyricularia oryzae)

CCN(C)C=Nc1cc(Cl)cc(Cc2ccc(F)c(Cl)c2)c1C [Compound 130, N′-(5-chloro-3-(3-chloro-4-fluorobenzyl)-2-methylphenyl)-N-ethyl-N-methylformimidamide]
≥ 70%: inhibition of growth at 300 ppm (Rhizoctonia solani) | pest or weed control at 500 ppm (Phakopsora pachyrhizi) | inhibition of growth at 300 ppm (Alternaria solani) | inhibition of growth at 300 ppm (Pyricularia oryzae) | inhibition of growth at 300 ppm [1]

CCN(C)C=Nc1cc(F)cc(Cc2ccc(Br)c(C)c2)c1C [Compound 232, N′-(3-(4-bromo-3-methylbenzyl)-5-fluoro-2-methylphenyl)-N-ethyl-N-methylformimidamide]
≥ 70%: inhibition of growth at 300 ppm (Rhizoctonia solani) | inhibition of growth at 300 ppm (Botrytis cinerea) | pest or weed control at 500 ppm (Phakopsora pachyrhizi) | inhibition of growth at 300 ppm (Alternaria solani) | inhibition of growth at 300 ppm (Pyricularia oryzae)

CCN(C)C=Nc1cc(C)cc(Nc2ccc(Cl)cc2F)c1Cl [Compound 134, N′-(2-chloro-3-((4-chloro-2-fluorophenyl)amino)-5-methylphenyl)-N-ethyl-N-methylformimidamide]
≥ 70%: inhibition of growth at 300 ppm (Rhizoctonia solani) | inhibition of growth at 300 ppm (Botrytis cinerea) | pest or weed control at 500 ppm (Phakopsora pachyrhizi) | inhibition of growth at 300 ppm (Pyricularia oryzae)

CCN(C)C=Nc1cc(Cl)cc(N(C)c2cccc(C)c2)c1C [Compound 160, N′-(5-chloro-2-methyl-3-(methyl(m-tolyl)amino)phenyl)-N-ethyl-N-methylformimidamide]
≥ 70%: inhibition of growth at 300 ppm (Botrytis cinerea) | pest or weed control at 500 ppm (Phakopsora pachyrhizi) | inhibition of growth at 300 ppm (Alternaria solani) | inhibition of growth at 300 ppm (Pyricularia oryzae)

CCN(C)C=Nc1cc(Cl)cc(Nc2ccccc2F)c1C [Compound 165, N′-(5-chloro-3-((2-fluorophenyl)amino)-2-methylphenyl)-N-ethyl-N-methylformimidamide]
≥ 70%: inhibition of growth at 300 ppm (Rhizoctonia solani) | inhibition of growth at 300 ppm (Alternaria solani) | inhibition of growth at 300 ppm (Pyricularia oryzae) | inhibition of growth at 300 ppm [1]

CCN(C)C=Nc1cc(F)cc(N(C)c2cccc(C(F)(F)F)n2)c1C [Compound 291, N-ethyl-N′-(5-fluoro-2-methyl-3-(methyl(6-(trifluoromethyl)pyridin-2-yl)amino)phenyl)-N-methylformimidamide]
≥ 70%: inhibition of growth at 300 ppm (Alternaria solani) | inhibition of growth at 300 ppm (Pyricularia oryzae) | inhibition of growth at 300 ppm [1]

CCN(C)C=Nc1cc(C)cc(N(C)c2c(C)cccc2F)c1Cl [Compound 138, N′-(2-chloro-3-((2-fluoro-6-methylphenyl)(methyl)amino)-5-methylphenyl)-N-ethyl-N-methylformimidamide]
≥ 70%: inhibition of growth at 300 ppm (Rhizoctonia solani) | inhibition of growth at 300 ppm (Alternaria solani) | inhibition of growth at 300 ppm (Pyricularia oryzae) | inhibition of growth at 300 ppm [1]

CCN(C)C=Nc1cc(F)cc(N(C)c2cccc(Cl)c2)c1C [Compound 33, N′-(3-((3-chlorophenyl)(methyl)amino)-5-fluoro-2-methylphenyl)-N-ethyl-N-methylformimidamide]
≥ 70%: inhibition of growth at 300 ppm (Botrytis cinerea) | pest or weed control at 500 ppm (Phakopsora pachyrhizi) | inhibition of growth at 300 ppm (Alternaria solani) | inhibition of growth at 300 ppm (Pyricularia oryzae)

CCN(C)C=Nc1cc(F)cc(Cc2cc(F)ccc2C)c1C [Compound 231, N-ethyl-N′-(5-fluoro-3-(5-fluoro-2-methylbenzyl)-2-methylphenyl)-N-methylformimidamide]
≥ 70%: inhibition of growth at 300 ppm (Rhizoctonia solani) | inhibition of growth at 300 ppm (Botrytis cinerea) | pest or weed control at 500 ppm (Phakopsora pachyrhizi) | inhibition of growth at 300 ppm (Alternaria solani) | inhibition of growth at 300 ppm (Pyricularia oryzae)

CCN(C)C=Nc1cc(F)cc(Cc2cc(F)ccc2Cl)c1C [Compound 229, N′-(3-(2-chloro-5-fluorobenzyl)-5-fluoro-2-methylphenyl)-N-ethyl-N-methylformimidamide]
≥ 70%: inhibition of growth at 300 ppm (Rhizoctonia solani) | inhibition of growth at 300 ppm (Botrytis cinerea) | pest or weed control at 500 ppm (Phakopsora pachyrhizi) | inhibition of growth at 300 ppm (Alternaria solani) | inhibition of growth at 300 ppm (Pyricularia oryzae)

CCc1cccc(Nc2cc(Cl)cc(N=CN(C)CC)c2C)n1 [Compound 243, N′-(5-chloro-3-((6-ethylpyridin-2-yl)amino)-2-methylphenyl)-N-ethyl-N-methylformimidamide]
≥ 70%: inhibition of growth at 300 ppm (Rhizoctonia solani) | inhibition of growth at 300 ppm (Alternaria solani) | inhibition of growth at 300 ppm (Pyricularia oryzae) | inhibition of growth at 300 ppm [1]

CCN(C)C=Nc1cc(F)cc(NCc2ccc(F)c(C)c2)c1C [Compound 182, N-ethyl-N′-(5-fluoro-3-((4-fluoro-3-methylbenzyl)amino)-2-methylphenyl)-N-methylformimidamide]
≥ 70%: inhibition of growth at 300 ppm (Rhizoctonia solani) | inhibition of growth at 300 ppm (Botrytis cinerea) | pest or weed control at 500 ppm (Phakopsora pachyrhizi) | inhibition of growth at 300 ppm (Alternaria solani) | inhibition of growth at 300 ppm (Pyricularia oryzae)

CCN(C)C=Nc1cc(C)cc(Nc2ccccc2F)c1C [Compound 6, N-ethyl-N′-(3-((2-fluorophenyl)amino)-2,5-dimethylphenyl)-N-methylformimidamide]
≥ 70%: inhibition of growth at 300 ppm (Rhizoctonia solani) | inhibition of growth at 300 ppm (Alternaria solani) | inhibition of growth at 300 ppm (Pyricularia oryzae) | inhibition of growth at 300 ppm [1]

CCN(C)C=Nc1cc(OC)cc(Nc2ccc(F)c(OC)c2)c1C [Compound 276, N-ethyl-N′-(3-((4-fluoro-3-methoxyphenyl)amino)-5-methoxy-2-methylphenyl)-N-methylformimidamide]
≥ 70%: inhibition of growth at 300 ppm (Rhizoctonia solani) | pest or weed control at 500 ppm (Phakopsora pachyrhizi) | inhibition of growth at 300 ppm (Alternaria solani) | inhibition of growth at 300 ppm (Pyricularia oryzae) | inhibition of growth at 300 ppm [1]

CCN(C)C=Nc1cc(C)cc(Cc2cc(F)ccc2C)c1Cl [Compound 57, N′-(2-chloro-3-(5-fluoro-2-methylbenzyl)-5-methylphenyl)-N-ethyl-N-methylformimidamide]
≥ 70%: inhibition of growth at 300 ppm (Botrytis cinerea) | pest or weed control at 500 ppm (Phakopsora pachyrhizi) | inhibition of growth at 300 ppm (Alternaria solani) | inhibition of growth at 300 ppm (Pyricularia oryzae)

CCN(C)C=Nc1cc(C)cc(Nc2cccc(OC)c2)c1Cl [Compound 42, N′-(2-chloro-3-((3-methoxyphenyl)amino)-5-methylphenyl)-N-ethyl-N-methylformimidamide]
≥ 70%: inhibition of growth at 300 ppm (Rhizoctonia solani) | inhibition of growth at 300 ppm (Botrytis cinerea) | pest or weed control at 500 ppm (Phakopsora pachyrhizi) | inhibition of growth at 300 ppm (Alternaria solani) | inhibition of growth at 300 ppm (Pyricularia oryzae)
